What follows are compounds tested on BJAB cells (assay: BJAB cell proliferation (Cell Titer Glo)). Conditions: Homo sapiens, read-out: EC50.
Format: cell-based
Experimental: Cells were seeded in white Corning Costar 96-well assay plates at 2500 cells/well in 50 μL of medium. Serial dilutions of test compounds were made in cell culture medium/FBS+0.2% DMSO, and transferred to assay plates in a volume of 50 μL (DMSO at 0.1% final). Plates were maintained at 37° C. for approximately 72 hours. The effect of compounds on cell proliferation was evaluated using the Cell Titer Glo reagent (Promega), according to the manufacturer's instructions. Briefly, 100 μL of reagent was added per well, and after a 10 minute incubation luminescence values were determined on a plate reader (Tecan F200PRO). The percent of luminescence signal relative to untreated controls was calculated for each compound concentration, and EC50 values were determined from dose response data by non-linear regression analysis using Prism (GraphPad). The mTor inhibitor Torin1 (Liu, et al. (2010) J. Med. Chem. 53, 7146.) was used as a control. The data are summarized in the compound table provided above.

| SMILES | EC50 |
| --- | --- |
| Cc1nn(-c2nc(-c3ccc(Cl)c(Cl)c3)c(SC(C)C)s2)c(C(=O)O)c1Cc1ccccc1[N+](=O)[O-] [Compound 6, 1-(4-(3,4-dichlorophenyl)-5-(isopropylthio)thiazol-2-yl)-3-methyl-4-(2-nitrobenzyl)-1H-pyrazole-5-carboxylic acid] | 25 to 50 µM |
| COc1cc(Cl)cc(-c2c(C)nn(-c3nc(-c4ccc(Cl)c(Cl)c4)c(SC(C)C)s3)c2C(=O)O)c1 [Compound 145, 4-(3-chloro-5-methoxyphenyl)-1-(4-(3,4-dichlorophenyl)-5-(isopropylthio)thiazol-2-yl)-3-methyl-1H-pyrazole-5-carboxylic Acid] | 1 to 5 µM |
| CCCCSc1sc(-n2nc(C)c(Cc3ccccc3[N+](=O)[O-])c2C(=O)OC)nc1-c1ccc(Cl)c(Cl)c1 [Compound 11, methyl 1-(5-(butylthio)-4-(3,4-dichlorophenyl)thiazol-2-yl)-3-methyl-4-(2-nitrobenzyl)-1H-pyrazole-5-carboxylate] | > 80 µM |
| COc1cc(-c2nc(-n3nc(C)c(-c4cc(C)nc(C)c4)c3C(=O)O)sc2SC(C)C)ccc1Cl [Compound 194, 1-(4-(4-chloro-3-methoxyphenyl)-5-(isopropylthio)thiazol-2-yl)-4-(2,6-dimethylpyridin-4-yl)-3-methyl-1H-pyrazole-5-carboxylic Acid] | 1 to 5 µM |
| Cc1cc(-c2c(C)nn(-c3nc(-c4cc(Cl)ccc4F)c(SC(C)C)s3)c2C(=O)O)cc(C)n1 [Compound 26, 1-(4-(5-chloro-2-fluorophenyl)-5-(isopropylthio)thiazol-2-yl)-4-(2,6-dimethylpyridin-4-yl)-3-methyl-1H-pyrazole-5-carboxylic Acid] | 5 to 10 µM |
| Cc1nn(-c2nc(-c3ccc(Cl)c(Cl)c3)c(SC(C)C)s2)c(C(=O)O)c1-c1cnccn1 [Compound 79, 1-(4-(3,4-dichlorophenyl)-5-(isopropylthio)thiazol-2-yl)-3-methyl-4-(pyrazin-2-yl)-1H-pyrazole-5-carboxylic Acid] | 10 to 25 µM |
| Cc1nn(-c2nc(-c3ccc(Cl)c(Cl)c3)c(SC(C)C)s2)c(C(=O)N(C)CCO)c1-c1cc(C(F)(F)F)cc(C(F)(F)F)c1 [Compound 76, 4-(3,5-bis(trifluoromethyl)phenyl)-1-(4-(3,4-dichlorophenyl)-5-(isopropylthio)thiazol-2-yl)-N-(2-hydroxyethyl)-N,3-dimethyl-1H-pyrazole-5-carboxamide] | > 40 µM |
| Cc1nn(-c2nc(-c3ccccc3)c(SC(C)C)s2)c(C(=O)O)c1-c1cnn(C)c1 [Compound 203, 1-(5-(isopropylthio)-4-phenylthiazol-2-yl)-1′,3-dimethyl-1H,1′H-[4,4′-bipyrazole]-5-carboxylic acid] | > 40 µM |
| Cc1nn(-c2nc(-c3ccc(CC(F)(F)F)cc3)c(SC(C)C)s2)c(C(=O)O)c1-c1cccc(F)c1 [Compound 257, 4-(3-fluorophenyl)-1-(5-(isopropylthio)-4-(4-(2,2,2-trifluoroethyl)phenyl)thiazol-2-yl)-3-methyl-1H-pyrazole-5-carboxylic acid] | 1 to 5 µM |
| Cc1nn(-c2nc(-c3ccc(Cl)c(Cl)c3)c(SC(C)C)s2)c(C(=O)N2CC(N)C2)c1-c1cc(C(F)(F)F)cc(C(F)(F)F)c1 [Compound 138, (3-aminoazetidin-1-yl)(4-(3,5-bis(trifluoromethyl)phenyl)-1-(4-(3,4-dichlorophenyl)-5-(isopropylthio)thiazol-2-yl)-3-methyl-1H-pyrazol-5-yl)methanone] | 10 to 25 µM |
| Cc1nn(-c2nc(-c3ccc(Cl)c(Cl)c3)c(SC(C)C)s2)c(C(=O)O)c1-c1ccc(Cl)cc1 [Compound 113, 4-(4-chlorophenyl)-1-(4-(3,4-dichlorophenyl)-5-(isopropylthio)thiazol-2-yl)-3-methyl-1H-pyrazole-5-carboxylic acid] | 10 to 25 µM |
| Cc1ccc(-c2c(C)nn(-c3nc(-c4ccc(Cl)c(Cl)c4)c(SC(C)C)s3)c2C(=O)O)cc1 [Compound 119, 1-(4-(3,4-dichlorophenyl)-5-(isopropylthio)thiazol-2-yl)-3-methyl-4-p-tolyl-1H-pyrazole-5-carboxylic acid] | 10 to 25 µM |
